Earlier results in patent US20070212387A1, “COATINGS FOR IMPLANTABLE MEDICAL DEVICES” (Sahajanand Medical Technologies Pvt. Ltd., priority 2006, published 2007).

What was measured:
[1] = in water

Row | Compound | water solubility [1] | concentration preventing collagen induced platelet aggregation (platelets)
1 | O=c1c(-c2ccc(O)cc2)coc2cc(O)cc(O)c12 [Genistein, 5,7-dihydroxy-3-(4-hydroxyphenyl)-4H-1-benzopyran-4-one] | practically insoluble in water | more than 25 μM
2 | O=c1c(-c2ccc(O)cc2)coc2cc(O[C@@H]3O[C@H](CO)[C@@H](O)[C@H](O)[C@H]3O)cc(O)c12 [Genistin] | greater water solubility than genistein | –
3 | O=c1c(O)c(-c2ccc(O)c(O)c2)oc2cc(O)cc(O)c12 [Quercetin, 2-(3,4-dihydroxyphenyl)-3,5,7-trihydroxy-4H-1-benzopyran-4-one] | practically insoluble in water | –
